“Also recorded” adds a separate entry of the source. Structures can show the parent of a compound that is named as a salt.
Target: T1, chymotrypsinogen (Bos taurus, UniProt P00766)
T1 construct: α-Chymotrypsinogen A from bovine pancreas; purchased Sigma Aldrich; host or cells: bovine pancreas
Experiment: Photochemical labeling of chymotrypsinogen with pyridinium salt (General Procedure B, LC/MS)
Type: biochemical, bovine
Details: trypsin digest
Experimental: General Procedure B: Photochemical Irradiation of Peptides and Proteins: To a 2 mL Pyrex LC/MS vial (Thermo model #03-391-39) were sequentially added solutions containing the desired biomolecule, glutathione (GSH), pyridinium salt, and ammonium acetate (NH4OAc). The resulting solution was diluted to a final volume of 500 μL and then sparged using nitrogen for a minimum of 30 minutes prior to irradiation. The actively sparging solution was then placed in an EvoluChem™ PhotoRedOx Box photoreactor that was equipped with a Kessil, PR160 427 nm LED Lamp and was then irradiated (100% lamp intensity) for the designated time at room temperature while maintaining active sparging. The resultant reaction mixture was then analyzed directly by LC/MS. Analysis of labeling outcomes using LC/MS was performed either by extracted ion chromatogram intensities (method A) or by integrating the area under the peaks associated with peptide content (method B). These values were totaled, and estimated percentages were assigned according to relative intensities of peaks or ion counts.
Labeling of Chymotrypsinogen with pyridinium salt 2a (Chymotrypsinogen-2a Conjugate). […] The reaction mixture was directly analyzed by LC/MS using method A and was estimated to have proceeded with 90% conversion with a 20.7:8.3:1 mono:di:tri labeled ratio and 4% glutathionylation of all unlabeled and labeled protein content. […]

## COC(=O)N(C)[n+]1c(C)cc(-c2ccc3cc(OC)ccc3c2)cc1C [pyridinium salt 2a, 1-((methoxycarbonyl)(methyl)amino)-4-(6-methoxynapthalen-2-yl)-2,6-dimethylpyridin-1-ium tetrafluoroborate]
  Modified Trp: Trp-215; also recorded: Trp-237
